# Assay results as given in patent US6759422B2, “Ion channel modulating agents” (Neurosearch A/S, priority 1999, dated 2004).
# Biological target: T1, Intermediate-conductance Ca2+-activated K+ channels (IK channels), hIK (Homo sapiens, UniProt O15554)
# T1 construct: expressed in transfected cells; host or cells: HEK293
# Experiment: Whole-cell patch-clamp recording of ionic current through IK channels stably expressed in HEK293 cells
# Assay type: cell-based
# Conditions: 1 μM test compound, baseline hIK current set to 100 (>100 activator, <100 blocker, 200 = doubling), whole-cell mode
# Description: In this experiment the ionic current through Intermediate-conductance Ca^2+-activated K^+ channels (IK channels) is recorded in the whole-cell mode of the patch-clamp technique.
# Intermediate-conductance Ca^2+-activated K^+ channels (IK channels) have been cloned from human placenta and stably expressed in HEK293 cells.
# Human IK (hIK) was excised from pT3T7 (GenBank Acc. No. N56819) using EcoR I and Not I and subcloned into the mammalian expression vector pNS1Z (NeuroSearch), a custom designed derivative of pcDNA3Zeo (InVitrogen) to give the plasmid construct pNS1Z_hIK. HEK293 tissue culture cells were grown in DMEM (Dulbecco's Modified Eagle Medium) supplemented with 10% FCS (foetal calf serum) at 37° C. in 5% CO2. One day prior to transfection, 10^6 cells were plated in a cell culture T25 flask. The following day, cells were transfected using lipofection (20 μL Lipofectamin™, Life Technologies, with 2.5 μg of the plasmid pNS1Z_hIK in a total volume of 540 μL).
# The lipofection mixture was overlaid on the cells and incubated at 37° C. for 5 hours. The cells were then rinsed with regular media and grown for 72 hours in DMEM, 10% FCS at 37° C. in 5% CO2. […]
# Experiments are carried out on a patch-clamp workstation equipped with an autosampler. […] Data are stored directly on the harddisk and analysed by the IGOR software (wavemetrics, Lake Oswego, USA)
# The whole-cell configuration of the patch clamp technique is applied. […] Cell capacitance is electronically compensated and the resistance between the pipette and the cell interior (the series resistance, Rs) is measured and compensated for. […]
# The extracellular (bath) solution contains (conc. in mM): 144 KCl, 0.1 CaCl2, 3 MgCl2, 10 HEPES (pH=7.4). The intracellular (pipette) solution has the following composition (conc. in mM): 144 KCl, 10 EGTA, 10 HEPES (pH=7.2) as well as CaCl2 and MgCl2 in concentrations calculated to result in a free concentration of Ca^2+ between 100 nM and 300 nM. The free concentration of Mg^2+ is calculated to be 1 mM. […]
row,Ionic Currents: Value determined using 1 μM of the test compound,SMILES
1,170,"Nc1nc2c(Cl)c(Cl)ccc2s1 [Compound 1, 2-amino-4,5-dichlorobenzothiazole]"
2,130,"Cc1ccc2sc(N)nc2c1C [Compound 2, 2-amino-4,5-dimethylbenzothiazole]"

row,SMILES,Ionic Currents: Value determined using 1 μM of the test compound
1,"Nc1nc2c3c(ccc2s1)CCCC3 [Compound 3, 2-amino-(5,6,7,8-tetrahydronaphto)-[1,2-d]-thiazole]",400
